Among the test systems are TK-10 renal; NCI-H522 lung; SNB-75 CNS; UACC-62 melanoma; CAKI-1 renal; SK-MEL-5 melanoma; PC-3 prostate; HT29 colon; SW-620 colon; SF-539 CNS.
Test in all cases: NCI anticancer screen, dose series, 48 h

The source of these data is PubChem BioAssay (NCI).

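Step 1: Grow cells in 96-well plates. Step 2: Expose to compound for 48 hours at 5 concentrations. Step 3: Interpolate endpoints linearly; if unreached, use highest concentration. GI50 is the concentration that inhibits growth by half. At the TGI there is no net growth.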 Where only a bound is given, the exact number is not on record here.

Take `Cn1c(=O)c(Oc2ccc(F)cc2F)cc2cnc(NC3CCOCC3)nc21`: the GI50 in the experiment with TK-10 renal was 18.6 µM; in the experiment with NCI-H522 lung, over 25 µM; in the experiment with SNB-75 CNS it was over 15.5 µM; in the experiment on UACC-62 melanoma it was over 25 µM; in the experiment on CAKI-1 renal, over 25 µM; with SK-MEL-5 melanoma, over 25 µM. Also, the GI50 in the experiment on PC-3 prostate, in the experiment with HT29 colon, in the experiment with SW-620 colon and in the experiment with SF-539 CNS was over 25 µM throughout. Also, the TGI in the experiment on TK-10 renal, in the experiment on NCI-H522 lung, in the experiment with SNB-75 CNS, in the experiment with UACC-62 melanoma, in the experiment on CAKI-1 renal and in the experiment on SK-MEL-5 melanoma was over 25 µM throughout. The TGI in the experiment with PC-3 prostate, in the experiment on HT29 colon, in the experiment on SW-620 colon and in the experiment on SF-539 CNS was over 25 µM throughout.
`Cc1ccsc1-c1ccc2c(c1)COC2(CCCN(C)C)c1ccc(F)cc1` (centres undefined): the GI50 with TK-10 renal is 3.04 µM; in the experiment with NCI-H522 lung, 3.02 µM; with SNB-75 CNS it was 1.72 µM; in the experiment on UACC-62 melanoma it was 1.89 µM; with CAKI-1 renal, 2.19 µM; in the experiment with SK-MEL-5 melanoma, 1.78 µM. In addition, the GI50 with PC-3 prostate was 3.28 µM; with HT29 colon, 2.29 µM; with SW-620 colon, 1.78 µM; in the experiment on SF-539 CNS it was 1.8 µM. Moreover, the TGI with TK-10 renal amounted to 12.8 µM; with NCI-H522 lung, 12.4 µM; with SNB-75 CNS it was 6.82 µM; with UACC-62 melanoma it was 4.04 µM; in the experiment on CAKI-1 renal, 6.05 µM; in the experiment on SK-MEL-5 melanoma it was 3.2 µM. In addition, the TGI in the experiment with PC-3 prostate came to 13.2 µM; in the experiment with HT29 colon, 8.45 µM; in the experiment with SW-620 colon, 3.75 µM; with SF-539 CNS it was 3.4 µM.
As for `COc1ccc2nc3cccc([N+](=O)[O-])c3c(NC(C)CN(C)C)c2c1` (centres undefined), the GI50 is 2.2 µM in the experiment on TK-10 renal; 0.69 µM with NCI-H522 lung; 2.25 µM in the experiment with SNB-75 CNS; 1.46 µM with UACC-62 melanoma; 2.52 µM with CAKI-1 renal; 1.18 µM in the experiment with SK-MEL-5 melanoma. The results for the GI50 in the experiment with HT29 colon, in the experiment with SW-620 colon and in the experiment with SF-539 CNS were 1.63 µM, 1.9 µM and 2.66 µM, respectively. For the same compound, the TGI with TK-10 renal was 9.59 µM; in the experiment on NCI-H522 lung, 2.18 µM; in the experiment with SNB-75 CNS, 5.55 µM; in the experiment with UACC-62 melanoma, 3.05 µM; in the experiment on CAKI-1 renal, 7.19 µM; in the experiment on SK-MEL-5 melanoma, 2.49 µM. Moreover, the TGI is 6.85 µM with PC-3 prostate, 6.8 µM in the experiment with HT29 colon, 12.5 µM in the experiment with SW-620 colon and 6.46 µM in the experiment with SF-539 CNS.
`CN(C)C=Nc1c(I)cc(I)c(CCC(=O)O)c1I`: the GI50 in the experiment with TK-10 renal, in the experiment on NCI-H522 lung, in the experiment on SNB-75 CNS, in the experiment with UACC-62 melanoma, in the experiment with CAKI-1 renal and in the experiment with SK-MEL-5 melanoma was over 100 µM each time. The GI50 was 91.5 µM with PC-3 prostate, over 100 µM in the experiment with HT29 colon, over 100 µM in the experiment with SW-620 colon and over 100 µM in the experiment on SF-539 CNS. Also, the TGI in the experiment with TK-10 renal, with NCI-H522 lung, with SNB-75 CNS, with UACC-62 melanoma, in the experiment with CAKI-1 renal and in the experiment on SK-MEL-5 melanoma was over 100 µM throughout. The TGI in the experiment with PC-3 prostate, in the experiment with HT29 colon, in the experiment on SW-620 colon and with SF-539 CNS was over 100 µM in each case.
As to `O=[N+]([O-])c1ccc2c(c1)C(c1ccccc1Cl)=Nc1c(n[nH]c1-c1cccnc1)N2`, the GI50 in the experiment with TK-10 renal was over 25 µM; in the experiment on NCI-H522 lung, over 25 µM; in the experiment on SNB-75 CNS, over 10.1 µM; with UACC-62 melanoma it was over 25 µM; in the experiment with CAKI-1 renal it was over 25 µM; with SK-MEL-5 melanoma, over 25 µM. For the same compound, the GI50 with PC-3 prostate, in the experiment with HT29 colon, in the experiment on SW-620 colon and with SF-539 CNS was over 25 µM throughout. The TGI with TK-10 renal, with NCI-H522 lung, in the experiment on SNB-75 CNS, in the experiment with UACC-62 melanoma, in the experiment on CAKI-1 renal and with SK-MEL-5 melanoma was over 25 µM throughout. For the same compound, the TGI in the experiment with PC-3 prostate, with HT29 colon, with SW-620 colon and in the experiment on SF-539 CNS was over 25 µM in each case.
For `COc1ccc(NC(=O)c2ccc(NC3=C(Cl)C(=O)N(Cc4ccccc4)C3=O)cc2)c(OC)c1`, the GI50 with TK-10 renal is 22.8 µM; with NCI-H522 lung it was 19 µM; in the experiment with SNB-75 CNS, 47.1 µM; with UACC-62 melanoma it was 37.2 µM; in the experiment with CAKI-1 renal it was 0.637 µM; with SK-MEL-5 melanoma, 26.2 µM. Further, the GI50 in the experiment on PC-3 prostate was 25.7 µM; with HT29 colon it was 41.5 µM; with SW-620 colon, 29.2 µM; in the experiment on SF-539 CNS, 28.2 µM. Besides, the TGI is over 100 µM with TK-10 renal; 68.9 µM in the experiment with NCI-H522 lung; over 100 µM in the experiment with SNB-75 CNS; over 100 µM in the experiment with UACC-62 melanoma; 1.96 µM with CAKI-1 renal; 75.2 µM with SK-MEL-5 melanoma. Also, the TGI in the experiment with PC-3 prostate is over 100 µM; in the experiment with HT29 colon, over 100 µM; in the experiment on SW-620 colon it was over 100 µM; in the experiment on SF-539 CNS, 67.1 µM.
Take `CC/C=C\C[C@H](O)C/C=C1/C(=O)C=C[C@@H]1C/C=C\CCCCO`: the GI50 was 3.31 µM in the experiment on TK-10 renal; 1.74 µM in the experiment on NCI-H522 lung; 11 µM in the experiment on SNB-75 CNS; 1.87 µM in the experiment with UACC-62 melanoma; 3.14 µM in the experiment with CAKI-1 renal; 1.88 µM in the experiment on SK-MEL-5 melanoma. Further, the GI50 in the experiment on PC-3 prostate is 3.32 µM; in the experiment on HT29 colon it was 2.4 µM; in the experiment with SW-620 colon, 2.98 µM; with SF-539 CNS, 2.03 µM. The TGI in the experiment on TK-10 renal is 9.22 µM; with NCI-H522 lung it was 3.95 µM; with SNB-75 CNS, 38.4 µM; in the experiment with UACC-62 melanoma it was 5.46 µM; with CAKI-1 renal, 12.8 µM; in the experiment on SK-MEL-5 melanoma, 3.78 µM. For the same compound, the TGI is 9.23 µM in the experiment with PC-3 prostate, 5.62 µM with HT29 colon, 15.2 µM in the experiment with SW-620 colon and 4.55 µM in the experiment on SF-539 CNS.
Consider `COc1cc(C2CC(=O)Nc3c2c(C)nn3-c2nc3ccccc3[nH]2)cc(OC)c1O` (centres undefined), for which the GI50 was 2.84 µM in the experiment on TK-10 renal; 2.38 µM in the experiment with NCI-H522 lung; 1.85 µM in the experiment on SNB-75 CNS; 2.06 µM in the experiment on UACC-62 melanoma; 2.36 µM in the experiment with CAKI-1 renal; 1.83 µM in the experiment on SK-MEL-5 melanoma. In addition, the GI50 in the experiment on PC-3 prostate is 3.49 µM; in the experiment with HT29 colon it was 3.66 µM; with SW-620 colon, 3.04 µM; in the experiment on SF-539 CNS it was 3.1 µM. Further, the TGI in the experiment on TK-10 renal amounted to 7.67 µM; in the experiment with NCI-H522 lung, 5.78 µM; with SNB-75 CNS it was 5.13 µM; in the experiment on UACC-62 melanoma, 4.9 µM; with CAKI-1 renal, 5.44 µM; in the experiment with SK-MEL-5 melanoma it was 3.62 µM. The TGI worked out at 38.8 µM in the experiment with PC-3 prostate, 16.6 µM in the experiment on HT29 colon, 17.4 µM in the experiment with SW-620 colon and 13.5 µM in the experiment on SF-539 CNS.
With `COc1ccc(Cn2cc3c(c2-c2cc(OC)c(OC)c(OC)c2)CCc2c(CO)noc2-3)cc1`, the GI50 in the experiment on TK-10 renal was 17.7 µM; in the experiment on NCI-H522 lung, 0.206 µM; in the experiment on SNB-75 CNS, 0.177 µM; in the experiment on UACC-62 melanoma, 0.354 µM; in the experiment with CAKI-1 renal, 0.342 µM; with SK-MEL-5 melanoma it was 0.334 µM. The GI50 was 0.309 µM in the experiment on PC-3 prostate, 0.323 µM in the experiment on HT29 colon, 0.381 µM with SW-620 colon and 0.213 µM with SF-539 CNS. Besides, the TGI in the experiment with TK-10 renal came to 55.2 µM; in the experiment with NCI-H522 lung it was 12.2 µM; in the experiment on SNB-75 CNS it was 24.4 µM; in the experiment with UACC-62 melanoma, 20.7 µM; in the experiment with CAKI-1 renal, 20.1 µM; in the experiment on SK-MEL-5 melanoma, 11.9 µM. Moreover, the TGI with PC-3 prostate is 41.9 µM; with HT29 colon, 13 µM; in the experiment with SW-620 colon, over 100 µM; in the experiment on SF-539 CNS it was 0.658 µM.
For `CN(C)CCNC(=O)c1ccc2oc3cc4ccccc4c(=O)n3c2c1`, the GI50 with TK-10 renal is 21.6 µM; in the experiment on NCI-H522 lung it was 18.1 µM; with SNB-75 CNS, 22.9 µM; with UACC-62 melanoma, 48.4 µM; with CAKI-1 renal, 17.1 µM; with SK-MEL-5 melanoma, 22.6 µM. Also, the GI50 in the experiment with PC-3 prostate is 61.6 µM; in the experiment on HT29 colon, 28 µM; in the experiment on SW-620 colon, 28.6 µM; with SF-539 CNS it was 22 µM. For the same compound, the TGI with TK-10 renal was 72.3 µM; with NCI-H522 lung it was 39.8 µM; in the experiment on SNB-75 CNS, 61.2 µM; with UACC-62 melanoma, over 100 µM; in the experiment with CAKI-1 renal, 55.2 µM; in the experiment with SK-MEL-5 melanoma it was 43.6 µM. The TGI with PC-3 prostate was over 100 µM; in the experiment with HT29 colon, over 100 µM; in the experiment with SW-620 colon it was over 100 µM; with SF-539 CNS, 47.3 µM.
For the compound `CC(=O)N[C@@H](Cc1ccc(OP(=O)(O)O)cc1)C(=O)N[C@H]1CCC(=O)N2CCC[C@@H](C(=O)NCc3ccccc3)N2C1=O`, the GI50 in the experiment on TK-10 renal, with NCI-H522 lung, in the experiment with SNB-75 CNS, in the experiment on UACC-62 melanoma, in the experiment on CAKI-1 renal and in the experiment on SK-MEL-5 melanoma was over 25 µM in each case. Further, the GI50 in the experiment with PC-3 prostate, with HT29 colon, with SW-620 colon and in the experiment with SF-539 CNS was over 25 µM throughout. The TGI in the experiment on TK-10 renal, in the experiment on NCI-H522 lung, in the experiment on SNB-75 CNS, in the experiment with UACC-62 melanoma, with CAKI-1 renal and in the experiment on SK-MEL-5 melanoma was over 25 µM in each case. For the same compound, the TGI with PC-3 prostate, in the experiment on HT29 colon, in the experiment with SW-620 colon and with SF-539 CNS was over 25 µM each time.
